“And” between values parts separate entries of the source, which are not always exact repeats. Equal values may be shown once. Square brackets hold non-standard residues; d marks the D form. Peptide text beside a SMILES is read from it. Dmt = Cc1cc(O)cc(C)c1C[C@H](N)C(=O)O
Assays:
[1] = Rat PK study, intravenous administration, plasma; type: in vivo; details: intravenous 1 mg/kg; for AUC(0-inf): read-out: AUCINF_obs; for clearance: read-out: Cl_obs; for Vd: read-out: Vss_obs
Method: General Methods and Procedures of Rat PK Studies (Aptuit)
All test formulations will be prepared on the day of administration prior to dosing and used as soon as possible. All test formulations will be stored at room temperature, prior to administration.
The dose formulation(s) will be prepared and administered by volume. The target dose levels are detailed below:
Test substances discrete doses will be formulated in saline water at the final concentration of 0.5 mg/mL and intravenously administered at the volume of 2 mL/kg to rats.
Actual body weights of animals will be recorded on the day of dose administration. Doses volumes will be adjusted taking into account the weight of the animal at the time of dose administration. Doses formulations will be administered intravenously via tail vein (2 mL/kg); an aliquot of each dose formulation will be taken before administration. The actual dose received by each animal will be registered and residual volumes discarded.
After administration, serial blood samples will be collected from the lateral tail vein of each rat, then animals will be sacrificed humanely. Approximately 300 μL of Blood will be collected into EDTA tubes. Then exactly 240 μL of blood will be transferred into a micronic tube containing 10 μL of a solution (30 mg/mL NaF and 239 mg/mL Pefabloc) at each of the following time points post-dose (actual times will be recorded): 0.083, 0.25, 0.5, 1, 2, 4 and 8 hours after dosing. All blood samples will be thoroughly but gently mixed following collection and placed on wet ice. Blood will be centrifuged (3000 g for 10 min at approximately 4° C.) as soon as possible and two 50 μL aliquots of plasma will be transferred into micronic tubes. Residual blood will be discarded.
Plasma samples will be frozen at approximately −80° C. as soon as possible after preparation and stored until analysis.
Plasma samples will be assayed using a method based on protein precipitation with methanol followed by HPLC/MS-MS analysis with an optimized analytical method. Calibration standards (CS) and Quality control samples (QC) will be prepared on the day of analysis. Study samples, CS, QC and blanks will be spiked with an internal standard (IS) to improve the precision of the assay. Study samples will be analyzed together with CS, QC and blank samples (including also double blanks). From the calibration curve, the linear range of the analytical method will be determined and lower and upper limits of quantitation specified. Details of the conditions and methods used will be included in the report. All dosing solutions will be checked for accuracy and actual concentration will be reported.
The results for test substances in plasma will be subject to non-compartmental pharmacokinetic analysis using Phoenix WinNonlin 6.3 (see Section 8). The following parameters will be reported:
Calculated concentration of test item in the corresponding formulation (expressed as mg/mL). Dose levels (expressed as mg/kg). Actual collection times (expressed as hh:mm). Plasma concentrations (expressed as ng/mL). Quantitative information about 2 metabolites in Plasma. PK parameters (iv: Cmax, AUClast, AUCinf, CL, Vss, t1/2, if applicable; Abnormal clinical signs and relevant findings, if any.

[2] = system: CL:DOPC 1:3 liposomes (cardiolipin); assay: Isothermal titration calorimetry (ITC) of test compound into CL:DOPC liposomes; type: binding; details: 20 mM HEPES pH 7.4
Method: Example 18: Isothermal Titration Calorimetry (ITC) Study
1. Preparation of CL:DOPC 1:3 Liposomes (CL Concentration 0.1 mM)
146 μl of cardiolipin solution (5.1 mg/mL in EtOH, Sigma-Aldrich, C1649-10MG) were mixed with 1.2 mg 0.05 mg (exact weight, see Table 1) of DOPC (Avanti Polar Lipids, 850375P) and 20 mM HEPES buffer pH=7.4. Resulting solution was diluted up to 5 mL with the same buffer, vortexed for 2 min and sonicated in bath sonicator for 30 min at room temperature. Liposomes were produced by manual extrusion (Avestin, The LiposoFast-Stabilizer with a LiposoFast-Basic) through a 100 nm filter (Avestin, PC membranes 0.1 m or Avanti Polar Lipids, PC membranes 0.1 μm, 610005). Extrusion was performed for 21 times. EtOH concentration in sample is 2.9%. Obtained CL:DOPC solutions were tested for homogeneity by DLS (Malvern Instruments Ltd, Zetasizer Nano ZSP, instrument with Malvern Instruments Ltd software 7.11) using the following parameters—medium: water; refractive index: 1.33; viscosity: 0.8872 cP; temperature: 25° C.; nanoparticles: liposomes; refractive index of materials: 1.60; detection angle of 173°, a wavelength of 633 nm. All measurements were performed in triplicate.
2. Preparation of Test Compound Solutions
2 mg or 14 mg (exact weight, see Table 1) of test compound were dissolved in 20 mM HEPES buffer (pH=7.4, contains 2,9% (V/V) of EtOH) to obtain 0.7 mM concentration (for exact volumes see Table 3). Obtained solution was vortexed for 2 min.
3. ITC Titration Experiments
Instrument cell was washed and purged with ≈100 μL of CL:DOPC liposomes solution. After washing cell was filled with CL:DOPC liposomes solution. Injection syringe was loaded with test compound solution. Injection volumes were set to values shown in Table 2 and DP values were set to 2.5 μcal/sec in all experiments. Time between injections—105 seconds. Titration of each compound is performed in triplicate, results are reported as mean value±standard deviation (see Table 4).

Row | Structure (SMILES) | AUC(0-t) [1] [ng·h/mL] | Cmax [1] [ng/mL] | Tmax [1] [min] | half-life [1] [min] | AUC(0-inf) [1] [ng·h/mL] | clearance [1] [mL/min/kg] | Vd [1] [L/kg] | Ka ([2]; Average of replicates) [M⁻¹] | Kd ([2]; Average of replicates) [µM] | Ka ([2]; single replicate titration) | Kd ([2]; single replicate titration)
1 | N=C(N)NCCC[C@@H](NC(=O)[C@@H](N)Cc1ccccc1)C(=O)N[C@@H](Cc1ccccc1)C(=O)N[C@@H](CCCCN)C(N)=O [Example 1 non-deuterated, Phe-D-Arg-Phe-Lys-NH2, reference compound] (H-F[dR]FK-NH2) | 1950 | 3200 | 4.98 | 30 | 1960 | 8.55 | 0.27 | 194000 | 5.39 | 230000 M⁻¹ and 141000 M⁻¹ and 211000 M⁻¹ | 4.35 µM and 7.09 µM and 4.74 µM
2 | [2H]C([2H])(N)C([2H])([2H])C([2H])([2H])C([2H])([2H])[C@H](NC(=O)[C@H](Cc1ccccc1)NC(=O)[C@@H](CCCNC(=N)N)NC(=O)[C@@H](N)Cc1ccccc1)C(N)=O [Example 1, Phe-D-Arg-Phe-(3,3,4,4,5,5,6,6-octadeuterium)-Lys-NH2] | 2300 | 4300 | 4.98 | 27 | 2310 | 7.24 | 0.21 | 389000 | 2.62 | 473000 M⁻¹ and 384000 M⁻¹ and 366000 M⁻¹ and 331000 M⁻¹ | 2.11 µM and 2.6 µM and 2.73 µM and 3.02 µM
3 | Cc1cc(O)cc(C)c1C[C@H](NC(=O)[C@H](N)CCCNC(=N)N)C(=O)N[C@@H](CCCCN)C(=O)N[C@@H](Cc1ccccc1)C(N)=O [Example 11 non-deuterated] (H-[dR][Dmt]KF-NH2) | 2120 | 2930 | 4.98 | 48 | 2120 | 7.97 | 0.29 | – | – | – | –
4 | [2H]C([2H])(CN)C([2H])([2H])C[C@H](NC(=O)[C@H](Cc1c(C)cc(O)cc1C)NC(=O)[C@H](N)CCCNC(=N)N)C(=O)N[C@@H](Cc1ccccc1)C(N)=O [Example 11, D-Arg-DMT-(4,4,5,5-d4)-Lys-Phe-NH2] | 2920 | 4680 | 4.98 | 35.3 | 2940 | 5.7 | 0.23 | – | – | – | –
